The structures appear in SMILES notation.

Experimental findings from article PMC8267677, “Inhibitory Mechanisms of Lusianthridin on Human Platelet Aggregation” (International Journal of Molecular Sciences, 2021) are described below.

For one assay, the target named is T1, cyclooxygenase-2 (COX-2) (Homo sapiens, UniProt P35354).
T1 construct: gene PTGS2
T1 sequence (P35354 18-604): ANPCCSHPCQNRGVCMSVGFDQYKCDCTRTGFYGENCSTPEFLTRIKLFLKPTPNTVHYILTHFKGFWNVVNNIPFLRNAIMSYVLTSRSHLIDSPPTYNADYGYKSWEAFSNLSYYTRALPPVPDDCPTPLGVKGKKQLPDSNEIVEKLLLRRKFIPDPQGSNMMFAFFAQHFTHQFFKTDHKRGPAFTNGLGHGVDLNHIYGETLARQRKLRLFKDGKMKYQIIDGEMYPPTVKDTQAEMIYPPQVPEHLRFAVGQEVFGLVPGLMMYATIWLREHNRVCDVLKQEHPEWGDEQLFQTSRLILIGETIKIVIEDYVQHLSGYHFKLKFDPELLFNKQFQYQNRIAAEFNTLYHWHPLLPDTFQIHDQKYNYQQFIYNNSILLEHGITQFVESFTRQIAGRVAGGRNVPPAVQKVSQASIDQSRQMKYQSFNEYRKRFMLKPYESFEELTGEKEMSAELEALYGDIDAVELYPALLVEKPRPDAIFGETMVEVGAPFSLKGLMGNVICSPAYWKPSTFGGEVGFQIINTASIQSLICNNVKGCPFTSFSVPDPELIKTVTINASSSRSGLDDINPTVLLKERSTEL
Put plainly: COX fluorescent inhibitor screening assay kit (Cayman), ADHP/resorufin readout. Format: biochemical.

Another assay addresses T2, cyclooxygenase-1 (COX-1) (Ovis aries, UniProt P05979).
T2 construct: gene PTGS1
T2 sequence (P05979 25-600): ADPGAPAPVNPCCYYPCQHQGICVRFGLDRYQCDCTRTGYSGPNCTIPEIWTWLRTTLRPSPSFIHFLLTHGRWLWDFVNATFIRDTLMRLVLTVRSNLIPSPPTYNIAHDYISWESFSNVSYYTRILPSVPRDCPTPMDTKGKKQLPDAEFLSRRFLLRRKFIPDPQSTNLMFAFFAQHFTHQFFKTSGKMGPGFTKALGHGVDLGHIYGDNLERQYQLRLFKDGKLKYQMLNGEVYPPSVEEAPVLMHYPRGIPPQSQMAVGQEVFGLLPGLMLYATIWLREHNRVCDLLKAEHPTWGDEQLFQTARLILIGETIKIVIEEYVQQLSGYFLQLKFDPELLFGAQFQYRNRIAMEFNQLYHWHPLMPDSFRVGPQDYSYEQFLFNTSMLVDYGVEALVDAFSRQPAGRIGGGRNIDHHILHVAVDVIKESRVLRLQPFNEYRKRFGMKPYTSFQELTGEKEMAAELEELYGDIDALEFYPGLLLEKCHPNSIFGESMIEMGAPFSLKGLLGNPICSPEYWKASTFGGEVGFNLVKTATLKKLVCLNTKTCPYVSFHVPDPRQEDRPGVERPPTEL
The description is as above. Format: biochemical.

With `COc1cc(O)c2c(c1)CCc1cc(O)ccc1-2` [lusianthridin], the half-inhibitory concentration (IC50) is 0.17 µM against cyclooxygenase-2 (COX-2) and 10.8 ± 1.12 µM at cyclooxygenase-1 (COX-1).
